The text below walks through data of US6034134A, “1-Amino-alkylcyclohexane NMDA receptor antagonists” (Merz + Co. GmbH & Co., priority 1998, dated 2000).

Structures can show the parent of a compound that is named as a salt. Where two headings read alike, the source gives them in different places.

For data set [1], the system named is NMDA receptor. The data set is described as follows: Patch clamp: NMDA-induced inward currents in cultured hippocampal neurones. It is filed as cell-based, rat. As to the method: Hippocampi were obtained from rat embryos (E20 to E21) and were then transferred to calcium and magnesium free Hank's buffered salt solution (Gibco) on ice. Cells were mechanically dissociated in 0.05% DNAase/0.3% ovomucoid (Sigma) following an 8 minute pre-incubation with 0.66% trypsin/0.1% DNAase (Sigma). The dissociated cells were then centrifuged at 18 ×g for 10 minutes, re-suspended in minimum essential medium (Gibco) and plated at a density of 150,000 cells cm^-2 onto poly-L-lysine (Sigma)-precoated plastic petri dishes (Falcon). The cells were nourished with NaHCO3 /HEPES-buffered minimum essential medium supplemented with 5% fetal calf serum and 5% horse serum (Gibco) and incubated at 37° C. with 5% CO2 at 95% humidity. […] Thereafter the medium was exchanged partially twice weekly.
Patch clamp recordings were made from these neurones with polished glass electrodes (4-6 m.OMEGA.) in the whole cell mode at room temperature (20-22° C.) with the aid of an EPC-7 amplifier (List). Test substances were applied by switching channels of a custom-made fast superfusion system with a common outflow (10-20 ms exchange times). The contents of the intracellular solution were as follows (mM): CsCl (120), TEACl (20), EGTA (10), MgCl2 (1), CaCl2 -(0.2), glucose (10), ATP(2), cAMP (0.25); pH was adjusted to 7.3 with CsOH or HC1. The extracellular solutions had the following basic composition (mM): NaCl (140), KCl (3), CaCl2 (0.2), glucose (10), HEPES (10), sucrose (4.5), tetrodotoxin (TTX 3*10^-4). Glycine (1 μM) was present in all solutions: a concentration sufficient to cause around 80-85% activation of glycineB receptors. Only results from stable cells were accepted for inclusion in the final analysis, i.e., following recovery of responses to NMDA by at least 75% of their depression by the antagonists tested.
(§1) IC50 s in patch clamp, excitotoxicity, and binding studies were calculated according to the four parameter logistic equation using the Grafit computer program (Erithacus Software, England). Ki value for binding studies were then determined according to Cheng and Prusoff. Binding values presented are means±SEM of 3-5 determinations (each performed in duplicate). […] Pearson product moment correlation analysis (Sigma Stat, Jandel Scientific) was used to compare in vitro potencies and in vivo anticonvulsant activity.

Another data set deals with cortical neurones. The data set is described as follows: Excitotoxicity: glutamate toxicity in cultured cortical neurones (MTT). The format is cell-based, rat. To be noted: Rattus norvegicus, Cortical neurone. As to the method: Cortical neurones were obtained from cerebral cortices of 17/18 day old fetal rats (Wistar), in general following the dissociation procedure described by. After short trypsinization and gentle trituration with fire-polished Pasteur pipettes, the cell suspension was washed by centrifugation. Cells were suspended in serum-free Neurobasal medium with B27 supplement (GIBCO) before plating onto poly-L-lysine (Sigma; 0.2 mg/ml, 20 h, 4° C.) and laminin (Sigma; 2 μg/ml, 1 h, 37° C.)-coated 96-well plates (Falcon, Primaria) at a density of 5×10^4 cells/well. Cortical neurones were maintained at 37° C. in humidified 10% CO2 /90% air. […] The medium was changed first after 4 days in vitro and then every 4 days by replacing 2/3 of the medium with astrocyte-conditioned medium. Cortical neurones between day 12 and 14 in culture were used for the experiments.
New-born rat astrocytes were isolated non-enzymatically according to the method of [24]. Briefly, both hemispheres were dissected from 2-day-old rats, passed through an 80 μm gauze, and triturated with Pasteur pipettes. Cell suspension was made in Dulbecco's modified essential medium (DMEM, Gibco) supplemented with 10% fetal calf serum (FCS, Hyclone), 2 mM glutamine (Gibco) and 50 μg/ml gentamycin and transferred into untreated, plastic culture flasks (Corning; […]). Two days after plating the flasks were shaken for 10 minutes on a rotary platform (150 U/min) to remove microglial cells. The cultures were grown to confluency within 14 days, and the culture medium was changed twice weekly. Thereafter, the glial monolayers were extensively washed with serum-free Neurobasal medium (Gibco) to remove the serum. Flasks were then shaken several times to remove oligodendrocytes and neurones. To obtain conditioned medium from primary astrocytes, the cultures were incubated with fresh Neurobasal medium supplemented with B27 andglutamine. Every 2-3 days the conditioned medium was collected and replaced by fresh medium up to 4 times.
Exposure to EAA was performed in serum-free Neurobasal medium containing 100 μM glutamate and the drug to be tested. After 20 h of incubation, the cytotoxic effect was morphologically examined under a phase contrast microscope and biochemically quantified by measuring cell viability with the MTT test (Promega). This calorimetric assay measures the reduction of a tetrazolium component (MTT) into an insoluble formazan product by the mitochondria of living cells. After incubation of the cortical neurones with the dye solution for approximately 1-4 hours, a solubilization solution was added to lyse the cells and solubilize the colored product (incubation overnight at 37° C., 10% CO2, 90% RH). These samples were then read using an Elisa plate reader (Thermomax, MWG Biotech) at a wavelength of 570 nm. The amount of color produced was directly proportional to the number of viable cells.
as §1

Data set [2] can be described thus: Maximal electroshock (MES)-induced convulsions in mice. It is filed as in vivo. Conditions: for ED50: Mus musculus, ip, 0.5 h, read-out: MES ED50; for MES ED50: 30 min. As to the method:
(§2) NMR female mice (18-28 g) housed 5 per cage were used for the maximal electroshock (MES) and motor impairment tests. […] All compounds were dissolved in 0.9% saline.
(§3) The MES test was performed together with tests for myorelaxant action (traction reflex) and motor coordination (rotarod). For the traction reflex test mice were placed with their forepaws on a horizontal rod and were required to place all 4 paws on the wire within 10 seconds. To test ataxia (motor coordination) mice were placed on rotarod (5 rpm) and were required to remain on the rod for 1 minute. […] These tests were followed by MES (100 Hz, 0.5 second shock duration, 50 mA shock intensity, 0.9 ms impulse duration, Ugo Basile) applied through corneal electrodes. The presence of tonic convulsions was scored (tonic extension of hind paws with minimum angle to the body of 90°). The aim was to obtain ED50 s for all parameters scored (anticonvulsive activity and motor side effects) with use of the Litchfield Wilcoxon test for quantal dose responses. Division of the ED50 for side effects (ataxia or myorelaxation) by the ED50 for antagonism of electroshock convulsions was used as a therapeutic index (TI). […]
In general terms: In the maximal electroshock model the usual endpoint is tonic extension of the hind limbs.

For data set [3] the following is noted: cited from earlier work; for side effects in humans: human, in vivo.
Data set [4] concerns the target NMDA receptor. The data set can be described thus: [3H]-(+)-MK-801 binding to rat cortical membranes. Conditions: read-out: MK-801 Ki; Table 9; Cheng-Prusoff with Kd for MK-801 of […]. As to the method: Male Sprague-Dawley rats (200-250 g) were decapitated and their brains were removed rapidly. The cortex was dissected and homogenized in 20 volumes of ice-cold 0.32 M sucrose using a glass-Teflon homogenizer. The homogenate was centrifuged at 1000 ×g for 10 minutes. The pellet was discarded and the supernatant centrifuged at 20,000 ×g for 20 minutes. The resulting pellet was re-suspended in 20 volumes of distilled water and centrifuged for 20 minutes at 8000 ×g. Then the supernatant and the buffy coat were centrifuged three times (48,000 ×g for 20 minutes) in the presence of 50 mM Tris-HCl, pH 8.0. All centrifugation steps were carried out at 4° C. After resuspension in 5 volumes of 50 mM Tris-HCl, pH 8.0 the membrane suspension was frozen rapidly at -80° C. On the day of assay the membranes were thawed and washed four times by resuspension in 50 mM Tris-HCl, pH 8.0 and centrifugation at 48,000 ×g for 20 minutes. The final pellet was suspended in assay buffer. The amount of protein in the final membrane preparation was determined according to the method of Lowry with some modifications. The final protein concentration used for our studies was between 250-500 μg/ml.
Membranes were re-suspended and incubated in 50 mM Tris-HCl, pH 8.0. […] Incubations were terminated using a Millipore filter system. The samples were rinsed three times with 2.5 ml ice cold assay buffer over glass fiber filters obtained from Schleicher & Schuell under a constant vacuum. Filtration was performed as rapidly as possible. Following separation and rinse, the filters were placed into scintillation liquid (5 ml; Ultima Gold) and radio activity retained on the filters was determined with a conventional liquid scintillation counter (Hewlett Packard, Liquid Scintillation Analyser).
as §1

Data set [5] is described as follows: Traction reflex test (myorelaxant action) in mice, therapeutic index versus MES. The format is in vivo. To be noted: ED50 for traction reflex impairment divided by ED50 for MES. As to the method:
as §2, §3

The procedure of data set [6]: All animals were kept with water and food ad libitum under a 12 hour light-dark cycle (light on at 6 a.m.) and at a controlled temperature (20±0.5° C.). All e experiments were performed between 10 a.m. and 5 p.m. Tested agents were injected 30 min. i.p. before the induction of convulsions if not stated otherwise (see below). All compounds were dissolved in 0.9% saline.

Data set [7] in a line: Rotarod test (motor coordination, ataxia) in mice, therapeutic index versus MES. The format is in vivo. To be noted: mouse, in vivo, ip; ED50 for rotarod failure divided by ED50 for MES; read-out: TI Rot. Here is the method: All compounds were dissolved in 0.9% saline.
The MES test was performed together with tests for myorelaxant action (traction reflex) and motor coordination (rotarod). For the traction reflex test mice were placed with their forepaws on a horizontal rod and were required to place all 4 paws on the wire within 10 seconds. To test ataxia (motor coordination) mice were placed on rotarod (5 rpm) and were required to remain on the rod for 1 minute. […] These tests were followed by MES (100 Hz, 0.5 second shock duration, 50 mA shock intensity, 0.9 ms impulse duration, Ugo Basile) applied through corneal electrodes. The presence of tonic convulsions was scored (tonic extension of hind paws with minimum angle to the body of 90°). The aim was to obtain ED50 s for all parameters scored (anticonvulsive activity and motor side effects) with use of the Litchfield Wilcoxon test for quantal dose responses. Division of the ED50 for side effects (ataxia or myorelaxation) by the ED50 for antagonism of electroshock convulsions was used as a therapeutic index (TI).
IC50 s in patch clamp, excitotoxicity, and binding studies were calculated according to the four parameter logistic equation using the Grafit computer program (Erithacus Software, England). Ki value for binding studies were then determined according to Cheng and Prusoff. […] Pearson product moment correlation analysis (Sigma Stat, Jandel Scientific) was used to compare in vitro potencies and in vivo anticonvulsant activity.
For orientation: In the rotarod test animals must keep their balance on a rotating rod.

The mark [8] stands for this setting: read-out: Patch Clamp IC50; Table 7; NMDA 200 μM with glycine 1 μM at -70 mV.
[9] abbreviates: read-out: Patch Clamp IC50; Table 9; NMDA-induced currents.
[10] abbreviates: 20 h, read-out: Glut. Tox. IC50.
Where [11] appears, read: Table 8, mice, i.p., 95% confidence limits in parentheses.

`NC12CC3CC(CC(C3)C1)C2` [Amantadine, reference compound]: the IC50 with NMDA receptor [1] (setting [8]) was 71 µM; in the data set with NMDA receptor [1] (setting [9]) it was 80.8 µM; in the data set with cortical neurones (setting [10]) it was 20.7 µM; in the data set with cortical neurones (read-out: Glut Tox IC50) it was 36.9 µM. For the same compound, the ED50 in data set [2] was 184 mg/kg. The “MES ED50” value in data set [2] (setting [11]) is listed as 184.0 (122-279) mg/kg. Further, the “side effects in humans” value in data set [3] is reported as “rarely produce side effects at the therapeutic doses”.
Regarding `CC1(C)CC(C)(C)CC(C)(CCN)C1` [Mrz 2/662], on NMDA receptor [4], the Ki turned out to be 3.44 µM. The IC50 in the data set on NMDA receptor [1] (Table 9; NMDA-induced currents; read-out: Patch Clamp IC50) worked out at 1.5 µM; in the data set with cortical neurones (Table 9, 100 μM glutamate, read-out: Glut Tox IC50), 0.53 µM. The median effective dose (ED50) in data set [2] (setting [11]) is 30.5 mg/kg. The “TI Tract” value in data set [5] (30 min) is given as 1.0. Moreover, the “Min Lethality” value in data set [6] (mouse, in vivo, ip) was > 40 mg/kg.
`CC1(C)CC(C)(C)CC(C)(N2CCCC2)C1.Cl` [MRZ 2/705, N-(1,3,3,5,5-Pentamethylcyclohexyl) pyrrolidine hydrochloride]: the Ki at NMDA receptor [4] came out at 7.14 µM. Further, the selectivity ratio at 0.5 h in data set [5] (mouse, in vivo, ip, read-out: TI Tract) is 3.9; in data set [7] it was 5.4. In addition, the “Min Lethality” value in data set [6] (i.p., minimal lethal dose) is > 50 mg/kg.
For the compound `C[C@]12N[C@H](Cc3ccccc31)c1ccccc12` [MK-801, (+)-5-methyl-10,11-dihydro-5H-dibenzocyclohepten-5,10-imine maleate, reference compound], the IC50 in the data set on NMDA receptor [1] (setting [8]) is […]; with NMDA receptor [1] (setting [9]), […]; in the data set with cortical neurones (setting [10]) it was 0.012 µM; with cortical neurones (read-out: Glut Tox IC50), 0.013 µM. Also, in data set [2], the 50% effective dose (ED50) came out at 0.16 mg/kg. Further, in data set [2] (setting [11]), the “MES ED50” value is 0.16 (0.13-0.21) mg/kg. The “Min Lethality” value in data set [6] (i.p., minimal lethal dose) is reported as > 108 mg/kg. The “side effects in humans” value in data set [3] was “some psychotropic side effects were apparent at therapeutic doses”. Also, the “therapeutic efficacy in epilepsy” value in data set [3] (initial clinical experience) is on record as “poor”.

By IC50 is commonly meant the concentration that gives 50% inhibition. For orientation: ED50 means the midpoint of the dose-response relation. By Ki is commonly meant a dissociation constant, usually derived from enzyme kinetics or from competition with a known ligand.
